Where “and” joins values, the source holds several entries; their conditions need not be identical. Identical values can stand only once. Some results are limits rather than exact numbers.

The results in this text go back to patent US8058039B2 (North American Bioproducts Corporation, priority 2008, dated 2011).

What all share (format): cell-based
The subject of data set [1] is Pediococcus test organism along with “industry normal” Lactobacillus. Kind of data set: Virginiamycin (V100) vs. Erythromycin (V200) comparative efficacy analysis, 24 well plate growth test in MRS broth. The settings on record: 33° C., read at 24 and 48 hours. The source says: (§1) The antibiotics currently most often used at alcohol production plants are either Penicillin-based or Virginiamycin-based. This example compares the use of Bactenix V200, an Erythromycin-based antibiotic versus V100, a Virginiamycin-based antibiotic also available from NABC to control Pediococcus test organism along with “industry normal” Lactobacillus. The trial uses an alcohol water mixture to assure total dissolving of antibiotics. This assures that the correct concentrations of antibiotics are going into the test wells and thereby preventing under dosing during the trial. All bacteria tested were industry specific isolates that were obtained from actual mash samples from alcohol production plants. The trial was set up as follows: • 1. Dissolve 0.1 g of each of the antibiotics in 1 ml water and then add 5 ml of ethanol, vortex and bring up to 10 ml with sterile water to from a suspension. • 2. Dilute the previous suspension 1:10 with sterile water. This gives a one mg/ml concentration. • 3. Filter the suspension by running through a 0.2 μm syringe filter. • 4. Add antibiotics to MRS (DeMan, Rogosa and Sharpe) broth at the concentrations required for the test. • 5. Take two μl of a fresh 24-hour culture of the target organisms and add to the corresponding empty wells in a pre-labeled 24 well tissue culture plate. • 6. Add one ml of the appropriate antibiotic media to each well of the plate. • 7. Incubate at 33° C. for 24 hours. • 8. Read plates for bacterial growth and re-incubate the plates at 33° C. • 9. After 48 hours read and report the final results.

Data set [2] concerns industry obtained Pediococcus bacteria. Described as above. The settings on record: 33° C., read at 24 and 48 hours.
From the text: as §1

The test system of data set [3] is bacteria encountered in ethanol production. The experiment in a line: Alcohol production plant trial, fermentor drop data (corn, batch fermentation). Here is the method:
This trial was conducted at a 50 million gallon per year (m/g/y) dry grind fuel alcohol production facility utilizing corn as a fermentation substrate. Batch yeast propagation and fermentation process were utilized. Antimicrobials were added to the fermentor during the fill cycle at approximately 30% fill. No other changes were made to the process or chemical additions that would influence the fermentation kinetics monitored during 3 sets of fermentor batches listed below. The fermentation data was accumulated at the end (drop) of the fermentation process for each of the fermentors. […] See results in Table 2. […] See results in Table 3. […] See results in Table 4.

Data set [4] has as its system Saccharomyces cerevisea yeast (BioFerm XR yeast). The experiment in a line: Impact of Erythromycin on the function and replication of yeast during lab scale corn mash fermentation. The settings on record: for Cell Count: number of cells in a given area. As to the method: A study was conducted to determine if the fermentation antimicrobial Erythromycin, interfered with cell growth and the fermentation function of Saccharomyces cerevisea yeast used in the fermentation phase of the production of fuel ethanol. […] This study looked at the ability of yeast to replicate and ferment a corn mash substrate with and without the presence of Erythromycin.
This study was set up in a series of fermentation vessels. All antibiotic concentrations were tested in triplicate. Cell counts were done on one flask for each treatment at 24 and 48 hours and final testing of the fermentation reactions by HPLC was performed at 48 hours. The experiment was set as follows:
1. Antibiotic solutions were prepared to provide a sterile 1 and 10 μg/ml solutions.
2. Antibiotic solutions tested were as follows:
A. Control (NA), no antibiotic
3. Fermentations were set up using 31% solids corn mash using saccharifying enzymes and the following procedure:
A. Yeast Conditioning: • 1. Add 2 g yeast to 10 mil sterile water for each 3 flasks to test, (10 g yeast to 50 ml water) into a sterile 250 ml flask and place in water bath set to 100° F. • 2. Incubate at 100° F. for 30 minutes with occasional mixing. • 3. Remove flasks from water bath and divide suspension between the all flasks for the trial.
B. Fermentation Procedure • 1. To prepared mash, add the following. • a. Add 0.58 g urea/liter mash and mix. • b. Add 0.2 ml GA per liter and mix. • 2. Remove sample for background HPLC testing. • 3. Add antibiotic solution to labeled sterile 250 ml flasks. • 4. Add hydrated yeast suspension to mash and mix well. • 5. Add sterile stir bar to each flask and add about 150 ml mash into each 250 ml flask for a total of 12 flasks. • Three flasks for each trial as follows: • a. First group, no antibiotic (NA) flasks 1-3 • b. […] Cover each flask with a gas trap in a sterilized stopper. • 7. Place in a 33° C. water bath with continuous mixing at 280 rpm at 75% power. • a. Turn power on to the magnetic stirrers after placing the flasks onto the platforms to move the stir bars; make sure that mixing is occurring in the flasks. • 8. Remove sample at 24 hours and perform cell count. • 9. Incubate sample for 48 hours, enough time for complete fermentation • 10. Collect samples at the following times for HPLC testing: • 0 hours (one per treatment); 24 hours; 48 hours • Perform 48 hour cell count on same flask as for 24 hour count.

The mark [5] stands for this setting: Set 1 “Pre Erythromycin trial”, 0.5 ppm Virginiamycin, at drop.
Setting [6] is: Set 3 “Post Erythromycin test”, 0.5 ppm Virginiamycin, at drop.
Where [7] appears, read: Set 3 “Post Erythromycin test”, 0.5 ppm Virginiamycin, single fermentor batch at drop.
Setting [8] is: 0.5 ppm Erythromycin vs 0.5 ppm Virginiamycin batches.
Where [9] appears, read: Set 2 vs Sets 1 and 3, same amount of antibiotic.
The mark [10] stands for this setting: Set 2 “Erythromycin trial”, 0.5 ppm Erythromycin, at drop.

For the compound Virginiamycin, the “effectiveness against all organisms tested” value in data set [1] was “not effective against all organisms tested”. Also, the “inclusion rate up to which Pediococcus was not controlled” value in data set [2] is recorded as above 3.0 ppm. Moreover, in data set [3] (setting [5]), the “Acetic %, 28 batch average” value is reported as 0.04%; the “EtOH %, 28 batch average” value was 15.67%; the “Glucose %, 28 batch average” value is given as 0.29%; the “Lactic %, 28 batch average” value was found to be 0.50%. The Acetic % in data set [3] (Set 1 “Pre Erythromycin trial”, 0.5 ppm Virginiamycin, single fermentor batch at drop) is 0.02% and 0.03% and 0.04% and 0.13% and 0.05%. Further, in data set [3] (setting [6]), the “Acetic %, 8 batch average” value was 0.04%; the “EtOH %, 8 batch average” value worked out at 15.58%; the “Glucose %, 8 batch average” value is given as 0.32%; the “Lactic %, 8 batch average” value is given as 0.47%. In data set [3] (setting [7]), the Acetic % is 0.04% and 0.03% and 0.05%; the EtOH % was 15.77% and 15.53% and 15.28% and 15.73% and 15.78% and 15.5% and 15.56% and 15.52%; the Glucose % was 0.35% and 0.29% and 0.31% and 0.33% and 0.3% and 0.32%; the Lactic % is 0.44% and 0.54% and 0.70% and 0.38% and 0.43% and 0.50% and 0.40%.

In the case of `CC[C@H]1OC(=O)[C@H](C)[C@@H](O[C@H]2C[C@@](C)(OC)[C@@H](O)[C@H](C)O2)[C@H](C)[C@@H](O[C@@H]2O[C@H](C)C[C@H](N(C)C)[C@H]2O)[C@](C)(O)C[C@@H](C)C(=O)[C@H](C)[C@@H](O)[C@]1(C)O` [Erythromycin], the “concentration effective against all organisms tested” value in data set [1] came out at 0.5 ppm. Moreover, in data set [3] (setting [8]), the “decrease of lactic acid production during the erythromycin trial” value came out at 0.23%, the “increase of ethanol production during the erythromycin trial” value came to 0.17% and the “production increase of ethanol per fermentor” value is listed as 816 gallons of ethanol per fermentor. Further, in data set [3] (setting [9]), the “final ethanol production compared to Virginiamycin fermentors” value is “increase in final ethanol production”, the “glucose utilized compared to Virginiamycin fermentors” value was “utilized the same amount of glucose” and the “lactic acid compared to Virginiamycin fermentors” value is “decrease in lactic acid”. In data set [3] (setting [10]), the “Acetic %, 27 batch average” value was found to be 0.04%; the “EtOH %, 27 batch average” value came to 15.84%; the “Glucose %, 27 batch average” value is given as 0.30%; the “Lactic %, 27 batch average” value is listed as 0.27%. For the same compound, the Acetic % in data set [3] (Set 2 “Erythromycin trial”, 0.5 ppm Erythromycin, single fermentor batch at drop) was 0.03% and 0.04% and 0.05% and 0.02% and 0.06%. Besides, in data set [4] (Erythromycin 5 ppm, 24 hr), the “% Budding” value amounted to 8%, the “% Viable” value was found to be 82% and the “Cell Count” value is 467. In data set [4] (Erythromycin 5 ppm, 48 hr), the “% Budding” value turned out to be 5%, the “% Viable” value is on record as 63% and the “Cell Count” value is 430. For the same compound, in data set [4] (Erythromycin 10 ppm, 24 hr), the “% Budding” value came out at 8%, the “% Viable” value turned out to be 80% and the “Cell Count” value is 434. Also, in data set [4] (Erythromycin 10 ppm, 48 hr), the “% Budding” value is 5%, the “% Viable” value was 61% and the “Cell Count” value was determined as 454. Further, in data set [4] (Erythromycin 20 ppm, 24 hr), the “% Budding” value came to 7%, the “% Viable” value is recorded as 85% and the “Cell Count” value came to 431. In data set [4] (Erythromycin 20 ppm, 48 hr), the “% Budding” value turned out to be 4%, the “% Viable” value is 62% and the “Cell Count” value turned out to be 446. Moreover, in data set [4] (at 48 hr), the “yeast growth with Erythromycin present vs without” value is recorded as “marginal better”. Moreover, the “adverse effect on the yeast” value in data set [4] (used up to 20 ppm) is on record as “no discernable adverse effect”.
